How the values were obtained:
[1] = tested on: xenograft mouse model made using ACHN; assay: Change of tumor volume by intraperitoneal D-allose injection, ACHN xenograft mouse model; format: in vivo, mice; conditions: 400 mg/kg intraperitoneal once a day, on and after day 13, Mann-Whitney U test
Experimental: (§1) The experiment of the present example used two human renal cell carcinoma cell lines (Caki-I and ACHN). Each cell was cultured under the wet environment of 37° C. and 5% CO2 by using a RPMI-1640 culture solution (2000 mg D-glucose/L) containing a 10% fetal calf serum, a HEPES buffer, and penicillin-streptomycin.
(§2) With respect to a renal cell carcinoma xenograft mouse model, a 1.0×10^5 cells/ml of a cell suspension was obtained by adjusting the cultured cells with a MEM culture solution and then 0.1 ml of the resulting suspension was injected into the femoral subcutaneous tissue of Female athymic nude mice (BALB/c-nu/nu, 6-week-old). After checking that the tumor volume was 200 mm^3 or more one week after the injection, the mice were provided for the experiment thereafter.
The day when the tumor size of the renal cell carcinoma xenograft mouse models became 200 mm^3 or more was called day 0 and the intraperitoneal injection of a D-allose-containing solution was started from day 1. The solution injected is 0.4 mL of physiological saline or a solution obtained by dissolving 100 mg/kg or 400 mg/kg of D-allose in 0.4 mL physiological saline. […] The body weight of the mice and the long and short diameters of the tumor were measured over time twice a week. […]

[2] = tested on: human prostate carcinoma cell line LNCa; assay: Rare sugar uptake experiment, sugar content in disrupted cell suspension of LNCa; format: cell-based
Experimental: (§3) An uptake amount of a rare sugar, which had been added to a medium, into carcinoma cells was analyzed using the cell lines of three types of cancers. As the rare sugar, four kinds, that is, D-allose, D-allulose (D-psicose), L-allulose (L-psicose), and allitol were used, while D-glucose and fructose were used as a monosaccharide which was not a rare sugar.
(§4) Cells of each of the cell lines were cultured in RPMI-1640 media and during culturing, six sugars were each added to the resulting media and cultured. After culturing, an amount of each sugar taken up into the cells was analyzed. The medium to which no sugar was added during culturing was used as a control.
(§5) Used were human bladder carcinoma cell lines (RT112, 253), and J82), human prostatic carcinoma cell lines (LNCa, Du145, and PC-3), and human renal cell carcinoma cell lines (ACHN, Caki-I, and Caki-II).
(§6) After cells were cultured in RPMI-1640 (2000 mg D-glucose/L) media, the above monosaccharides and rare sugars were added to the resulting media, respectively. Described specifically, they were following seven combinations: RPMI-1640 alone (control), RPMI-1640+D-glucose, RPMI-1640+L-allulose, RPMI-1640+D-allulose, RPMI-1640+D-fructose, RPMI-1640+D-allose, and RPMI-1640+D-allitol. The final concentration of the sugar in the medium was adjusted to 10 mM and no sugar was added in the control.
(§7) Five-ml portions of a 3.0×10^4 cells/ml cell suspension prepared using RPMI-1640 were seeded in dishes having a diameter of 6 cm (1.5×10^5 cells/dish) and cultured for 24 hours in the RPMI-1640 medium containing 2000 mg/l of D-glucose as a nutrient source. Twenty-four hours later, the media were changed to the culture solutions containing the monosaccharides and rare sugars described above in 2), respectively, followed by culturing for 48 hours.
(§8) After culturing for 48 hours, the attached human carcinoma cells were mechanically separated and collected in a Spitz tube together with the culture solution and floating cells. After the supernatant formed by centrifugation (4° C., 1200 rpm, and 5 minutes) was removed to obtain cell pellets alone, 5 ml of a phosphate buffer physiological saline (PBS) was added for the purpose of washing to obtain a cell suspension of the cell pellets. A gain, the resulting cell suspension was centrifuged at 4° C. and 1200 rpm for 5 minutes and the supernatant was removed. To the cell pellets after washing was added 1 ml of pure water to suspend them therein. Ultrasonic disruption (intensity: 40%, 30 seconds) was then performed and the monosaccharide in the disrupted cell suspension was labeled with ABEE, followed by analysis by HPLC. From the area thus obtained, the sugar content in the cells was determined using a calibration curve. With respect to the ketose, two peaks were found after labeling with ABEE so that the sugar content in the cells was determined from the calibration curves of both peaks.

ACHN tumor tissue = assay: Tumor tissue histology (necrosis area, nuclear fission), ACHN xenograft mouse model; format: in vivo, mice; conditions: day 35
Experimental: as §1, §2
(§9) The day when the tumor size of the renal cell carcinoma xenograft mouse models became 200 mm^3 or more was called day 0 and the intraperitoneal injection of a D-allose-containing solution was started from day 1. The solution injected is 0.4 mL of physiological saline or a solution obtained by dissolving 100 mg/kg or 400 mg/kg of D-allose in 0.4 mL physiological saline. The resulting solution was intraperitoneally injected into three groups of mice (Control, 100 mg/kg of D-allose, and 400 mg/kg of D-allose) once a day for 5 weeks in total. The body weight of the mice and the long and short diameters of the tumor were measured over time twice a week. It is to be noted that the tumor volume was obtained as a product of long diameter×short diameter×short diameter of the tumor×0.5. On day 35 after the intraperitoneal injection was started, the tumor as well as the liver and kidney were excised from the mice and provided for the experiment performed thereafter.
(§10) The tissue of the excised tumor, kidney, and liver was fixed with a 4% paraformaldehyde phosphate buffer, embedded with paraffin, and sliced into a 4-μm thick section. The resulting sliced section was stained with hematoxylin and eosin and evaluated by a medical specialist in pathology. The influence of D-allose on the tumor tissue was evaluated by a necrosis area (%) and an image of the number of nuclear fissions (Cells/HPF). It is to be noted that the necrosis area was measured using an image recording software Nikon NIS—Elements D and figures after the decimal point were omitted. On the other hand, the number of nuclear fissions was obtained as an average of those of three fields of view and figures after the decimal point were also omitted. The anti-tumor effect of D-allose, more specifically, necrosis area and the number of nuclear fissions in the renal cell carcinoma xenograft mouse model are shown in Table 10.

[3] = tested on: human bladder carcinoma cell line RT112; assay: Rare sugar uptake experiment, sugar content in disrupted cell suspension of RT112; format: cell-based
Experimental: as §3, §4, §5, §6, §7, §8

[4] = tested on: human renal cell carcinoma cell line ACHN; assay: Rare sugar uptake experiment, sugar content in disrupted cell suspension of ACHN; format: cell-based
Experimental: as §3, §4, §5, §6, §7, §8

[5] = tested on: human renal cell carcinoma cell line Caki-I; assay: Rare sugar uptake experiment, sugar content in disrupted cell suspension of Caki-I; format: cell-based
Experimental: as §3, §4, §5, §6, §7, §8

Caki-I tumor tissue = assay: Tumor tissue histology (necrosis area, nuclear fission), Caki-I xenograft mouse model; format: in vivo, mice; conditions: day 35
Experimental: as §1, §2, §9, §10

[6] = tested on: xenograft mouse model made using Caki-I; assay: Change of tumor volume by intraperitoneal D-allose injection, Caki-I xenograft mouse model; format: in vivo, mice
Experimental: as §1, §2, §9

[7] = 100 mg/kg intraperitoneal once a day
[8] = 400 mg/kg intraperitoneal once a day

Structure (SMILES): O=C[C@H](O)[C@H](O)[C@H](O)[C@H](O)CO [D-allose]
- Tumor volume versus Control group [1]: significantly smaller than the Control group
- D-glucose content in cell ([2]; LNCa, named sugar added to RPMI-1640 at 10 mM, 48 hours, HPLC after ABEE labeling): 11.2 µg
- Content in cell of the added sugar ([2]; human, 48 h, 10 mM): 0.0 µg
- Necrosis area (ACHN tumor tissue; [7]): 49%
- Nuclear fission (ACHN tumor tissue; [7]): 1.2 Cells/HPF
- Necrosis area (ACHN tumor tissue; [8]): 69%
- Nuclear fission (ACHN tumor tissue; [8]): 0.9 Cells/HPF
- D-glucose content in cell ([3]; RT112, named sugar added to RPMI-1640 at 10 mM, 48 hours, HPLC after ABEE labeling): 9.7 µg
- Content in cell of the added sugar ([3]; human, 48 h, 10 mM): 0.0 µg
- D-glucose content in cell ([4]; ACHN, named sugar added to RPMI-1640 at 10 mM, 48 hours, HPLC after ABEE labeling): 1.8 µg
- Content in cell of the added sugar ([4]; human, 48 h, 10 mM): 11.2 µg
- D-glucose content in cell ([5]; Caki-I, named sugar added to RPMI-1640 at 10 mM, 48 hours, HPLC after ABEE labeling): 2.1 µg
- Content in cell of the added sugar ([5]; human, 48 h, 10 mM): 13.2 µg
- Necrosis area (Caki-I tumor tissue; [7]): 22%
- Nuclear fission (Caki-I tumor tissue; [7]): 0.9 Cells/HPF
- Necrosis area (Caki-I tumor tissue; [8]): 33%
- Nuclear fission (Caki-I tumor tissue; [8]): 1 Cells/HPF
- Tumor volume versus Control group ([6]; 100 mg/kg intraperitoneal once a day, on and after day 31, Mann-Whitney U test): significantly smaller than that of the Control group
- Tumor volume versus tumor volume before administration ([6]; 400 mg/kg intraperitoneal once a day, on and after day 16): significantly smaller than the tumor volume before administration
- Tumor volume versus Control group ([6]; 400 mg/kg intraperitoneal once a day, on and after day 16, Mann-Whitney U test): significantly smaller than that of the Control group

— patent US20250249025A1, “DRUG DELIVERY CARRIER UTILIZING PROPERTY OF D-ALLOSE BEING UPTAKEN BY CANCER CELL, DRUG DELIVERY METHOD, AND COMPOSITION FOR TREATING RENAL CELL CARCINOMA” (NATIONAL UNIVERSITY CORPORATION KAGAWA UNIVERSITY, priority 2019, published 2025)
